In PubChem BioAssay AID1259407 (Chemical Carcinogenesis Research Information System (CCRIS), 2018):
Calls of active or inactive are those of the source. No rule for the calls is given here.

System: CCRIS mutagenicity, Ames/micronucleus/aberration tests
Test: CCRIS mutagenicity studies
Conditions: Test System: AMES SALMONELLA TYPHIMURIUM
[1] = Strain/Indicator: TA98, Metabolic Activation: NONE, Method: PREINCUBATION
[2] = Strain/Indicator: TA100, Metabolic Activation: NONE, Method: PREINCUBATION
[3] = Strain/Indicator: TA98, Metabolic Activation: NONE, Method: STANDARD PLATE
[4] = Strain/Indicator: TA98, Metabolic Activation: RAT, LIVER, S-9, AROCLOR 1254, Method: STANDARD PLATE
[5] = Strain/Indicator: TA100, Metabolic Activation: NONE, Method: STANDARD PLATE
[6] = Strain/Indicator: TA100, Metabolic Activation: RAT, LIVER, S-9, AROCLOR 1254, Method: STANDARD PLATE

Measured: mutagenic call

CCCCC(CC)COC(=O)c1cccc(C(=O)OCC(CC)CCCC)c1 (stereo not given)
inactive: Strain/Indicator: TA97, Metabolic Activation: HAMSTER, LIVER, S-9, AROCLOR 1254 (10 OR 30%), Method: PREINCUBATION inactive; negative | Strain/Indicator: TA97, Metabolic Activation: NONE, Method: PREINCUBATION inactive; negative | Strain/Indicator: TA97, Metabolic Activation: RAT, LIVER, S-9, AROCLOR 1254 (10 OR 30%), Method: PREINCUBATION inactive; negative | Strain/Indicator: TA98, Metabolic Activation: HAMSTER, LIVER, S-9, AROCLOR 1254 (10 OR 30%), Method: PREINCUBATION inactive; negative | [1] inactive; negative | Strain/Indicator: TA98, Metabolic Activation: RAT, LIVER, S-9, AROCLOR 1254 (10 OR 30%), Method: PREINCUBATION inactive; negative | Strain/Indicator: TA100, Metabolic Activation: HAMSTER, LIVER, S-9, AROCLOR 1254 (10 OR 30%), Method: PREINCUBATION inactive; negative | [2] inactive; negative | Strain/Indicator: TA100, Metabolic Activation: RAT, LIVER, S-9, AROCLOR 1254 (10 OR 30%), Method: PREINCUBATION inactive; negative | Strain/Indicator: TA1535, Metabolic Activation: HAMSTER, LIVER, S-9, AROCLOR 1254 (10 OR 30%), Method: PREINCUBATION inactive; negative | Strain/Indicator: TA1535, Metabolic Activation: NONE, Method: PREINCUBATION inactive; negative | Strain/Indicator: TA1535, Metabolic Activation: RAT, LIVER, S-9, AROCLOR 1254 (10 OR 30%), Method: PREINCUBATION inactive; negative

O=C(O)c1cc([N+](=O)[O-])cc2cccnc12
active: [3] active; positive | [4] active; positive | [6] active; positive
inactive: [5] inactive; negative | Strain/Indicator: TA1535, Metabolic Activation: NONE, Method: STANDARD PLATE inactive; negative | Strain/Indicator: TA1535, Metabolic Activation: RAT, LIVER, S-9, AROCLOR 1254, Method: STANDARD PLATE inactive; negative | Strain/Indicator: TA1537, Metabolic Activation: NONE, Method: STANDARD PLATE inactive; negative | Strain/Indicator: TA1537, Metabolic Activation: RAT, LIVER, S-9, AROCLOR 1254, Method: STANDARD PLATE inactive; negative

c1ccc2c(c1)ccc1c3cccnc3ccc21
active: [4] active; positive | [6] active; positive

O=[N+]([O-])c1ccc(/C=N/n2cccn2)o1
active: Strain/Indicator: TA97, Metabolic Activation: NONE, Method: STANDARD PLATE active; positive | [3] active; positive | [5] active; positive | Strain/Indicator: TA102, Metabolic Activation: NONE, Method: STANDARD PLATE active; positive

O=[N+]([O-])c1cccc2c1oc1ccccc12
inactive: [2] inactive; negative
active: Strain/Indicator: TA98(1,8-DNP6), Metabolic Activation: NONE, Method: PREINCUBATION active; positive | Strain/Indicator: TA98(1,8-DNP6), Metabolic Activation: NONE, Method: SUSPENSION active; positive | Strain/Indicator: TA98(1,8-DNP6), Metabolic Activation: RAT, LIVER, S-9, PCB (5%), Method: PREINCUBATION active; positive | Strain/Indicator: TA98(NR), Metabolic Activation: NONE, Method: PREINCUBATION active; positive | Strain/Indicator: TA98(NR), Metabolic Activation: NONE, Method: SUSPENSION active; positive | Strain/Indicator: TA98(NR), Metabolic Activation: RAT, LIVER, S-9 (10%), Method: PREINCUBATION active; positive | Strain/Indicator: TA98(NR), Metabolic Activation: RAT, LIVER, S-9, 3-METHYLCHOLANTHRENE (10%), Method: PREINCUBATION active; positive | Strain/Indicator: TA98(NR), Metabolic Activation: RAT, LIVER, S-9, BETA-NAPHTHOFLAVONE (10%), Method: PREINCUBATION active; positive | Strain/Indicator: TA98(NR), Metabolic Activation: RAT, LIVER, S-9, PCB (5%), Method: PREINCUBATION active; positive | Strain/Indicator: TA98(NR), Metabolic Activation: RAT, LIVER, S-9, PCB (10%), Method: PREINCUBATION active; positive | Strain/Indicator: TA98(NR), Metabolic Activation: RAT, LIVER, S-9, PHENOBARBITAL (10%), Method: PREINCUBATION active; positive | [1] active; positive | Strain/Indicator: TA98, Metabolic Activation: NONE, Method: SUSPENSION active; positive | Strain/Indicator: TA98, Metabolic Activation: RAT, LIVER, S-9, PCB (5%), Method: PREINCUBATION active; positive | Strain/Indicator: TA98, Metabolic Activation: RAT, LIVER, S-9, PCB, Method: SUSPENSION active; positive | Strain/Indicator: TA100, Metabolic Activation: NONE, Method: SUSPENSION active; positive | Strain/Indicator: TA100, Metabolic Activation: RAT, LIVER, S-9, PCB (5%), Method: PREINCUBATION active; positive | Strain/Indicator: TA100, Metabolic Activation: RAT, LIVER, S-9, PCB, Method: SUSPENSION active; positive
